In paper PMC3795068, “Functional Evolution of a Multigene Family: Orthologous and Paralogous Pheromone Receptor Genes in the Turnip Moth, Agrotis segetum” (PLoS ONE, 2013):
Residue numbers refer to the chain shown, from its start.

How the values were obtained:
Assay in all cases: two-electrode voltage clamp, Xenopus oocytes, inward current
Format in all cases: cell-based
AsegOR10 = molecular target: T1, AsegOR10 (Agrotis segetum, UniProt U5KJI4); conditions: agonist, 100 uM stimulus, 20 s, -80 mV, Ringer's pH 7.6, with Orco
T1 construct: full-length ORF, 432 aa, pCS2+ cRNA co-injected with Orco (473 aa) cRNA in Xenopus laevis oocytes; with Odorant receptor co-receptor (Orco)
T1 sequence (U5KJI4 1-432): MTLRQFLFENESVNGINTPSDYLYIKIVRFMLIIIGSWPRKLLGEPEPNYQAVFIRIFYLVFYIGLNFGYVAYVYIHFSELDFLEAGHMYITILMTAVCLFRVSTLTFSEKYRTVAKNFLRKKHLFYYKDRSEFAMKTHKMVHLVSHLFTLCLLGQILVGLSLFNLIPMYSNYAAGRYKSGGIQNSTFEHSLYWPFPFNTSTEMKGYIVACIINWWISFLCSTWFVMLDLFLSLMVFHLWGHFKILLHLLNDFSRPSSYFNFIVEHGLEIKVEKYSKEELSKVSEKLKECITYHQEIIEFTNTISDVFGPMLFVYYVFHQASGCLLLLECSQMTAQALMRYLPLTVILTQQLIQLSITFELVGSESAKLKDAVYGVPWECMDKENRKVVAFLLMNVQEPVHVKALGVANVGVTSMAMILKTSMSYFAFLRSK
T1 sequence (U5KJY5 1-473 partner): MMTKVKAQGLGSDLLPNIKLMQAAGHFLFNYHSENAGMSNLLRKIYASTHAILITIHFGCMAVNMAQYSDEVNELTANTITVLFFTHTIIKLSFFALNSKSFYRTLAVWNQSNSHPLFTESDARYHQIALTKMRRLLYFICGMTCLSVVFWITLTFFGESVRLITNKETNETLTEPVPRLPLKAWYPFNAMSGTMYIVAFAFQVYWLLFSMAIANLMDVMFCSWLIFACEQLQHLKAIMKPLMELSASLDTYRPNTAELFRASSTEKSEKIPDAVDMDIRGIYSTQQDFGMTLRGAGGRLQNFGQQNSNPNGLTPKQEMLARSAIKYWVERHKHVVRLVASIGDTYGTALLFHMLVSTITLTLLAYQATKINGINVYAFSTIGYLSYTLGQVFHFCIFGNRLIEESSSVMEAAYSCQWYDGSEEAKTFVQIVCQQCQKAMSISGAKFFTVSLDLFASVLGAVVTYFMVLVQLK

AsegOR9 = molecular target: T2, AsegOR9 (Agrotis segetum, UniProt U5KJQ9); conditions: agonist; 100 uM stimulus, 20 s, -80 mV, Ringer's pH 7.6, with Orco; dose response curve
T2 construct: full-length ORF, 433 aa, pCS2+ cRNA co-injected with Orco (473 aa) cRNA in Xenopus laevis oocytes; with Odorant receptor co-receptor (Orco)
T2 sequence (U5KJQ9 1-433): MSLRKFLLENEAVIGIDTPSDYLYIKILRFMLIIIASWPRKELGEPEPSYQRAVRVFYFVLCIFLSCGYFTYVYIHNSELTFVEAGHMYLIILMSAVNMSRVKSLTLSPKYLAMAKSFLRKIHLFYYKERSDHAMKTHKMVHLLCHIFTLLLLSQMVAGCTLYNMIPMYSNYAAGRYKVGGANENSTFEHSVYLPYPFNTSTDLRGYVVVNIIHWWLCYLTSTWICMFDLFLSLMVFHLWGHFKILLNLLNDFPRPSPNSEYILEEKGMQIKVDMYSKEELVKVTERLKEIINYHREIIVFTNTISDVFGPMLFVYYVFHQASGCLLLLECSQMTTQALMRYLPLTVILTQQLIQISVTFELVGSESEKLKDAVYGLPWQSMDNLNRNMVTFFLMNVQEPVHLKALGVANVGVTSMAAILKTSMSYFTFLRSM
T2 sequence (U5KJY5 1-473 partner): T1 sequence (U5KJY5 1-473 partner)

AsegOR1 = molecular target: T3, AsegOR1 (Agrotis segetum, UniProt U5KK32); conditions: agonist; 100 uM stimulus, 20 s, -80 mV, Ringer's pH 7.6, with Orco; dose response curve
T3 construct: full-length ORF, 432 aa, pCS2+ cRNA co-injected with Orco (473 aa) cRNA in Xenopus laevis oocytes; with Odorant receptor co-receptor (Orco)
T3 sequence (U5KK32 1-432): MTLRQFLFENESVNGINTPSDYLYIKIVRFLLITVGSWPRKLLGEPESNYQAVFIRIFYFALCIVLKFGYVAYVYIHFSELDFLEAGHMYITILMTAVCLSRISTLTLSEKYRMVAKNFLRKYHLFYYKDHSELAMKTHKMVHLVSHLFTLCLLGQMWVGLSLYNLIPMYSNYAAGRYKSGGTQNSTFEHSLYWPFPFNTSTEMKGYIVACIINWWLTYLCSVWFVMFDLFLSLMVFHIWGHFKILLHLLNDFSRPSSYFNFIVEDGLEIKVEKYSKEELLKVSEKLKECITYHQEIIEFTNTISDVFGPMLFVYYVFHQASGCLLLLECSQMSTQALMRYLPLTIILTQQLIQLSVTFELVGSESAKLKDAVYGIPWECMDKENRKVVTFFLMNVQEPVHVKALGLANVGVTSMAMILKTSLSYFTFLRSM
T3 sequence (U5KJY5 1-473 partner): T1 sequence (U5KJY5 1-473 partner)

AsegOR8 = molecular target: T4, AsegOR8 (Agrotis segetum, UniProt U5KJT2); conditions: agonist; 100 uM stimulus, 20 s, -80 mV, Ringer's pH 7.6, with Orco; dose response curve
T4 construct: with Odorant receptor co-receptor (Orco)
T4 sequence (U5KJT2 1-430): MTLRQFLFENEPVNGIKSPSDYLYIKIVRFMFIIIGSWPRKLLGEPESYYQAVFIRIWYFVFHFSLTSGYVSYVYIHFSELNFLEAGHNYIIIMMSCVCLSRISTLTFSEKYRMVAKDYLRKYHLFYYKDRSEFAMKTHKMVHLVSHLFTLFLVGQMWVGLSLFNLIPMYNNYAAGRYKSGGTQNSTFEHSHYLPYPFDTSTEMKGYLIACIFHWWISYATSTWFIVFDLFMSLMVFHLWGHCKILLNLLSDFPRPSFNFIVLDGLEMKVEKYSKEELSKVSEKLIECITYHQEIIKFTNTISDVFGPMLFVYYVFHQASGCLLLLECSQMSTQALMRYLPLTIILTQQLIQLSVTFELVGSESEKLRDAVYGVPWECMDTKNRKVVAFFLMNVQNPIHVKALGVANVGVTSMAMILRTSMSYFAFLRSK
T4 sequence (U5KJY5 1-473 partner): T1 sequence (U5KJY5 1-473 partner)

AsegOR6 = molecular target: T5, AsegOR6 (Agrotis segetum, UniProt U5KJY6); conditions: agonist; 100 uM stimulus, 20 s, -80 mV, Ringer's pH 7.6, with Orco; dose response curve
T5 construct: full-length ORF, 430 aa, pCS2+ cRNA co-injected with Orco (473 aa) cRNA in Xenopus laevis oocytes; with Odorant receptor co-receptor (Orco)
T5 sequence (U5KJY6 1-430): T4 sequence (U5KJT2 1-430) with S48P, Q51K, V53I, F60L, S279L, R368K, A425T
T5 sequence (U5KJY5 1-473 partner): T1 sequence (U5KJY5 1-473 partner)

AsegOR4 = molecular target: T6, AsegOR4 (Agrotis segetum, UniProt U5KJQ7); conditions: agonist; 100 uM stimulus, 20 s, -80 mV, Ringer's pH 7.6, with Orco; dose response curve
T6 construct: full-length ORF, 424 aa, pCS2+ cRNA co-injected with Orco (473 aa) cRNA in Xenopus laevis oocytes; with Odorant receptor co-receptor (Orco)
T6 sequence (U5KJQ7 1-424): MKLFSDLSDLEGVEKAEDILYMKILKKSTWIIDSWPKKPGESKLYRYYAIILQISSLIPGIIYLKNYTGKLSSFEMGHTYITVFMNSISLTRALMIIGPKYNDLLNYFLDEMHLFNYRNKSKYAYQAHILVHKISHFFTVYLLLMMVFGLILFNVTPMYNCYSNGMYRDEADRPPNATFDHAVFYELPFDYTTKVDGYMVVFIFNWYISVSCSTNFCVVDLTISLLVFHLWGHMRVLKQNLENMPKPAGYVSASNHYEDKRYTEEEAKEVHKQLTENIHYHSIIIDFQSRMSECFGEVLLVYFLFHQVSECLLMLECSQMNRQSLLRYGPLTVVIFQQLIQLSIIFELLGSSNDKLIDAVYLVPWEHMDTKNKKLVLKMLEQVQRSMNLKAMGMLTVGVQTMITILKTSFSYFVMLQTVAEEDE
T6 sequence (U5KJY5 1-473 partner): T1 sequence (U5KJY5 1-473 partner)

AsegOR5 = molecular target: T7, AsegOR5 (Agrotis segetum, UniProt U5KJI3); conditions: agonist, 100 uM stimulus, 20 s, -80 mV, Ringer's pH 7.6, with Orco
T7 construct: full-length ORF, 443 aa, pCS2+ cRNA co-injected with Orco (473 aa) cRNA in Xenopus laevis oocytes; with Odorant receptor co-receptor (Orco)
T7 sequence (U5KJI3 1-443): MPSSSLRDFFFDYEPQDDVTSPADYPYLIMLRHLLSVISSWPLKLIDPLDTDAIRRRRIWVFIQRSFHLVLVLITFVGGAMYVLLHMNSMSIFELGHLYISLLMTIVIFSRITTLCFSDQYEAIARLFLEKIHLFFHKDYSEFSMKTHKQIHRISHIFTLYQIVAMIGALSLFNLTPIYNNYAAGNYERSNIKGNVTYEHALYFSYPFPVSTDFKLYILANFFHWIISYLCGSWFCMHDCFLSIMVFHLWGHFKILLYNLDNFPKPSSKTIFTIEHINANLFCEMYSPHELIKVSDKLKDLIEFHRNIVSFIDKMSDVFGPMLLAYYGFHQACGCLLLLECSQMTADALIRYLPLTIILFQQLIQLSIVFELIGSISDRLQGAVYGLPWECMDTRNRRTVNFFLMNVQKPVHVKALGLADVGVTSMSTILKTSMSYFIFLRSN
T7 sequence (U5KJY5 1-473 partner): T1 sequence (U5KJY5 1-473 partner)

AsegOR3 = molecular target: T8, AsegOR3 (Agrotis segetum, UniProt U5KJT1); conditions: agonist; 100 uM stimulus, 20 s, -80 mV, Ringer's pH 7.6, with Orco
T8 construct: full-length ORF, 435 aa, pCS2+ cRNA co-injected with Orco (473 aa) cRNA in Xenopus laevis oocytes; with Odorant receptor co-receptor (Orco)
T8 sequence (U5KJT1 1-435): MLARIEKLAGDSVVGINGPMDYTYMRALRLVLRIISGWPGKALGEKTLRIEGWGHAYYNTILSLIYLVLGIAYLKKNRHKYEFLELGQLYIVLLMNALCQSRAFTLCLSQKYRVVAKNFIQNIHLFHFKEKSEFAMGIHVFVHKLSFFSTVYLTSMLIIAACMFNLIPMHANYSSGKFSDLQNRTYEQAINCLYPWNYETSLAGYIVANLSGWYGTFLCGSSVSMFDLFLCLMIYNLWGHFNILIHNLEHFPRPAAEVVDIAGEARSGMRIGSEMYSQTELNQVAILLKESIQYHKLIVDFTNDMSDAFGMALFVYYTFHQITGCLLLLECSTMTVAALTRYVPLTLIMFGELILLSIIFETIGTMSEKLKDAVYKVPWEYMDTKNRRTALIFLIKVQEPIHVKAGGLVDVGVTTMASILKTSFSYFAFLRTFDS
T8 sequence (U5KJY5 1-473 partner): T1 sequence (U5KJY5 1-473 partner)

AsegOR7 = molecular target: T9, AsegOR7 (Agrotis segetum, UniProt U5KK33); conditions: agonist; 100 uM stimulus, 20 s, -80 mV, Ringer's pH 7.6, with Orco
T9 construct: with Odorant receptor co-receptor (Orco)
T9 sequence (U5KK33 1-432): T3 sequence (U5KK32 1-432) with L31M, I33V, S101F, I103V, M114T, H131R, L134Y, I376V, K383T, E384K
T9 sequence (U5KJY5 1-473 partner): T1 sequence (U5KJY5 1-473 partner)

With CCCC/C=C\CCCCOC(C)=O [Z5-10:OAc] the “two-electrode voltage clamp, Xenopus oocytes, inward current” value (“two-electrode voltage clamp” below) (AsegOR10; dose response curve) was “AsegOR10 responded to Z9-14:OAc and Z5-10:OAc but with low sensitivity”, the “two-electrode voltage clamp” value (AsegOR9) was “co-expressing AsegOR9 (Cluster I) and Aseg\Orco robustly and specifically responded to Z5-10:OAc” and the “two-electrode voltage clamp” value (AsegOR1) was “Oocytes co-expressing AsegOR1 and Aseg\Orco also responded to Z5-10:OAc”. The “two-electrode voltage clamp” value (AsegOR8) was “Different sensitivities of the six paralogues to the main pheromone component Z5-10:OAc”.
For CCCC/C=C\CCCCO [Z5-10:OH], the “two-electrode voltage clamp” value (AsegOR6) was “oocytes that showed the strongest response to another antagonist Z5-10:OH” and the “two-electrode voltage clamp” value (AsegOR8) was “Two of them (AsegOR6 and AsegOR8) showed strong responses to Z5-10:OH (Figure 5B)”.
With CCCC/C=C\CCCCCCOC(C)=O [Z7-12:OAc] the “two-electrode voltage clamp” value (AsegOR4) was “AsegOR4 (Cluster IV) was specifically responsive to the pheromone component Z7-12:OAc”, the “two-electrode voltage clamp” value (AsegOR5) was “a much smaller response to Z7-12:OAc and marginal responses to other tested compounds” and the “two-electrode voltage clamp” value (AsegOR3) was “albeit with Z7-12:OAc standing out as the most active one”. The “two-electrode voltage clamp” value (AsegOR7) was “receptors for Z8-12:OAc and Z7-12:OAc (AsegOR1 and AsegOR7)”.
For CCC/C=C\CCCCCCCOC(C)=O [Z8-12:OAc], the “two-electrode voltage clamp” value (AsegOR7) was “receptors for Z8-12:OAc and Z7-12:OAc (AsegOR1 and AsegOR7)”.
CCCC/C=C\CCCCCCCCOC(C)=O [Z9-14:OAc] was tested, and the “two-electrode voltage clamp” value (AsegOR5; dose response curve) was “AsegOR5 (Cluster II) showed the largest response to Z9-14:OAc” and the “two-electrode voltage clamp” value (AsegOR10) was “AsegOR10 responded to Z9-14:OAc and Z5-10:OAc but with low sensitivity”.
